Data published in paper PMC10175918 (Communications Biology, 2023).
Read-outs that look alike come from different tables or passages of the source.

Tests used:
Assay in all cases: TGFα-shedding assay-based GPCR screening with chimeric Gα subunit proteins
Assay type in all cases: cell-based
[1] = target: T1, 348 GPCRs (Homo sapiens, UniProt Q8IZ08); details: 10µM, Favipiravir 100μM
T1 construct: expressed in transfected cells; host or cells: HEK293A

[2] = target: T2, 348 GPCRs (Homo sapiens, UniProt Q9BZJ8)
T2 construct: expressed in transfected cells; host or cells: HEK293A
T2 sequence (Q9BZJ8 whole entry): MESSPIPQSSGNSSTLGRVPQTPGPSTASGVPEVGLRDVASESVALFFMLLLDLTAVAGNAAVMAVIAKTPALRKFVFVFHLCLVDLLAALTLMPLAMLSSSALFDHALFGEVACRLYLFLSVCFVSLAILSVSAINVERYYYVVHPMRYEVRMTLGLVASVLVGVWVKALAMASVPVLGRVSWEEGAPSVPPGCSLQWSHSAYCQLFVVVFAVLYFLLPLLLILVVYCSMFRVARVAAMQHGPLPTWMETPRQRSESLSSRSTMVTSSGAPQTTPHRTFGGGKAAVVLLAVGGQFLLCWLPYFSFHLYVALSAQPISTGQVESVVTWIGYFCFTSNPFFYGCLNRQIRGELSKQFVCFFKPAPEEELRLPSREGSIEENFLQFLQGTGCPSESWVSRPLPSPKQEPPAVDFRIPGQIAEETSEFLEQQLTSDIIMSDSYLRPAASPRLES

[3] = target: T3, 348 GPCRs (Homo sapiens, UniProt Q6DWJ6); details: 10µM, Favipiravir 100μM
T3 construct: expressed in transfected cells; host or cells: HEK293A
T3 sequence (Q6DWJ6 1-353): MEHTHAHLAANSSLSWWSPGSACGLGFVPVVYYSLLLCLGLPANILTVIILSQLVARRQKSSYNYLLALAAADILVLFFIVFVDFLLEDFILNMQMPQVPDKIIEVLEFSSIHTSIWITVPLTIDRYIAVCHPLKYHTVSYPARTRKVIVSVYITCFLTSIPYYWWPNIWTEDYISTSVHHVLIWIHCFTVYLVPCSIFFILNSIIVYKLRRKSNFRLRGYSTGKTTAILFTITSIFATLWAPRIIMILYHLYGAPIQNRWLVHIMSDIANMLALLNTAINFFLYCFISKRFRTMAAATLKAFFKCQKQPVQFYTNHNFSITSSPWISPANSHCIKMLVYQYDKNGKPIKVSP

[4] = target: T4, 348 GPCRs (Homo sapiens, UniProt P25116); details: 10µM, Favipiravir 100μM
T4 construct: expressed in transfected cells; host or cells: HEK293A
T4 sequence (P25116 22-425): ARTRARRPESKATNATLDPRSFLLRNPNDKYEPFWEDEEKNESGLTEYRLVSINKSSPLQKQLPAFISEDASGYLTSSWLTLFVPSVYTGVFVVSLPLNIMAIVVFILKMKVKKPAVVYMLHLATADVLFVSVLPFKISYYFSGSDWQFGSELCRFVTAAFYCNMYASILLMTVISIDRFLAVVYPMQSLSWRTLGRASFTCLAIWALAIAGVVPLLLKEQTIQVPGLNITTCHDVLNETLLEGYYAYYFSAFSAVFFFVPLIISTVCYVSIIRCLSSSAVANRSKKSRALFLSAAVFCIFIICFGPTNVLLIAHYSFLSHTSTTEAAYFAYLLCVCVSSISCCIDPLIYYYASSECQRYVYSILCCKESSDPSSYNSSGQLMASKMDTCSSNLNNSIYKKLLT

[5] = target: T5, 348 GPCRs (Homo sapiens, UniProt Q9BZJ6)
T5 construct: expressed in transfected cells; host or cells: HEK293A
T5 sequence (Q9BZJ6 whole entry): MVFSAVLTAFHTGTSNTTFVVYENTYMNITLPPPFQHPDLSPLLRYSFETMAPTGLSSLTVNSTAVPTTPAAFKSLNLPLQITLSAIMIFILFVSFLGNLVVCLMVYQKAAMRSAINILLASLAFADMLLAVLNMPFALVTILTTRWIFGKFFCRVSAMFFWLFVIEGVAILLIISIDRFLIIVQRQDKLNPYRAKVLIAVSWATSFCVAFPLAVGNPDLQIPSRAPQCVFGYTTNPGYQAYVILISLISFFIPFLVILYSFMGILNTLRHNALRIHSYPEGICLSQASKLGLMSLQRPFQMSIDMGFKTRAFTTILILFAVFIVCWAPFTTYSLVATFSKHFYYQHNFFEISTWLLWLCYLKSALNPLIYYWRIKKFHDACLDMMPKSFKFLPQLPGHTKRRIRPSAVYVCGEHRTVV

[6] = target: T6, 348 GPCRs (Homo sapiens, UniProt P29371); details: 10µM, Favipiravir 100μM
T6 construct: expressed in transfected cells; host or cells: HEK293A
T6 sequence (P29371 1-465): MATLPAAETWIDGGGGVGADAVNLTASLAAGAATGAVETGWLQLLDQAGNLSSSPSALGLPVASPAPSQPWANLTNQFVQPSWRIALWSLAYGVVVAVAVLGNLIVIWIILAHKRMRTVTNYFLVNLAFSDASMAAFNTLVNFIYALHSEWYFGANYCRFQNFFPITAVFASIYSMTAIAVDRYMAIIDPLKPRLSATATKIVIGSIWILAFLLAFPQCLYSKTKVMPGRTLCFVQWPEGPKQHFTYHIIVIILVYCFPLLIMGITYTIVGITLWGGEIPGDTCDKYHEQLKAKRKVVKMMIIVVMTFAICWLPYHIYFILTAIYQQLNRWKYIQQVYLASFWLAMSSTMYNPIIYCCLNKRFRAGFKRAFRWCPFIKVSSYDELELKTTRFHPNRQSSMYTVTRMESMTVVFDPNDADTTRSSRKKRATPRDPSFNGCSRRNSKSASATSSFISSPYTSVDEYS

[7] = target: T7, 348 GPCRs (Homo sapiens, UniProt Q96P65); details: 10µM, Favipiravir 100μM
T7 construct: expressed in transfected cells; host or cells: HEK293A
T7 sequence (Q96P65 1-431): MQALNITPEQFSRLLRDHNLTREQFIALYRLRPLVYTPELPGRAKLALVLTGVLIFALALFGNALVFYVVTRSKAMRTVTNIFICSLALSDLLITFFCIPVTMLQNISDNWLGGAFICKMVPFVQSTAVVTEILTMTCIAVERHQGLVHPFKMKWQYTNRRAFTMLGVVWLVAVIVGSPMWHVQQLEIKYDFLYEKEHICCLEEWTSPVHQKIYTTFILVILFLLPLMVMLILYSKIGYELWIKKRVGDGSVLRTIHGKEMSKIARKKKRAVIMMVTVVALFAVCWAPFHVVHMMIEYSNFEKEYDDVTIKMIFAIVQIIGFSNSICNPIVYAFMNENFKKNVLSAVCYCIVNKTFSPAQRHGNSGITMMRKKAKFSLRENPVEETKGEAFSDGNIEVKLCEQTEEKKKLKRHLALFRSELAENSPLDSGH

[8] = target: 348 GPCRs (Homo sapiens, UniProt P28223); details: 10µM, Favipiravir 100μM
Sequence of 348 GPCRs (Homo sapiens, UniProt P28223) (P28223 whole entry): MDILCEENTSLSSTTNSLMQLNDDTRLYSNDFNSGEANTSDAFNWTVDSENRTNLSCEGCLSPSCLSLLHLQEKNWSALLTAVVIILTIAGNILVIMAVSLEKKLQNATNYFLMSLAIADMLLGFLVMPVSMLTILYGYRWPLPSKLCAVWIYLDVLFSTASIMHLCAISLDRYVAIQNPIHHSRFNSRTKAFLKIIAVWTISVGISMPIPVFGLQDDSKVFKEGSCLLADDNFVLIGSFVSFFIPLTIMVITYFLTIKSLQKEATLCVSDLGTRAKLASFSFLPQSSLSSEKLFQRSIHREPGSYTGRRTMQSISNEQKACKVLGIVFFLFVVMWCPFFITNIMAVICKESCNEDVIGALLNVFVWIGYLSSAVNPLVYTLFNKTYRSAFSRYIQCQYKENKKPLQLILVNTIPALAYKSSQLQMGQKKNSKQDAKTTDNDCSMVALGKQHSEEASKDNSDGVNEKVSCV

[9] = target: T8, 348 GPCRs (Homo sapiens, UniProt Q9GZN0); details: 10µM, Favipiravir 100μM
T8 construct: expressed in transfected cells; host or cells: HEK293A
T8 sequence (Q9GZN0 whole entry): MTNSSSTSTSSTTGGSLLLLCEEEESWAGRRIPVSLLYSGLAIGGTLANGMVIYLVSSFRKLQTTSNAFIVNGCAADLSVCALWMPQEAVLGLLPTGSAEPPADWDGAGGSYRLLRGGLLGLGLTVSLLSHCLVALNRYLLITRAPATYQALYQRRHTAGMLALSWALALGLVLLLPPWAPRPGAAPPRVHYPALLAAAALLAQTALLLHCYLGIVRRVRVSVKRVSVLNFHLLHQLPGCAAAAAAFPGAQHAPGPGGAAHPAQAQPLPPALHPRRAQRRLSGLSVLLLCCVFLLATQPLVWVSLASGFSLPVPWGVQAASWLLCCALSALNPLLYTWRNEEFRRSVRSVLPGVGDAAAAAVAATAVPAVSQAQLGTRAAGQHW

[10] = GPR135 (G Protein-Coupled Receptor 135), read-out: % GPCR activation compared to TPA
[11] = GPCR GPR61 (G protein-coupled receptor 61), read-out: % GPCR activation compared to TPA
[12] = GPR139 (G protein-coupled receptor 139), read-out: % GPCR activation compared to TPA
[13] = F2R (coagulation factor II (thrombin) receptor), read-out: % GPCR activation compared to TPA
[14] = GPCR GPR63 (G Protein-Coupled Receptor 63), read-out: % GPCR activation compared to TPA
[15] = NK3 (tachykinin receptor 3), read-out: % GPCR activation compared to TPA
[16] = QRFP (pyroglutamylated RFamide peptide receptor), read-out: % GPCR activation compared to TPA
[17] = 5-HT2A (5-hydroxytryptamine receptor 2A), read-out: % GPCR activation compared to TPA
[18] = GPR88 (G Protein-Coupled Receptor 88), read-out: % GPCR activation compared to TPA
[19] = read-out: % GPCR activation compared to TPA, GPR135 (G Protein-Coupled Receptor 135)
[20] = read-out: % GPCR activation compared to TPA, GPCR GPR61 (G protein-coupled receptor 61)
[21] = read-out: % GPCR activation compared to TPA, GPR139 (G protein-coupled receptor 139)
[22] = read-out: % GPCR activation compared to TPA, F2R (coagulation factor II (thrombin) receptor)
[23] = read-out: % GPCR activation compared to TPA, GPCR GPR63 (G Protein-Coupled Receptor 63)
[24] = read-out: % GPCR activation compared to TPA, NK3 (tachykinin receptor 3)
[25] = read-out: % GPCR activation compared to TPA, QRFP (pyroglutamylated RFamide peptide receptor)
[26] = read-out: % GPCR activation compared to TPA, 5-HT2A (5-hydroxytryptamine receptor 2A)
[27] = read-out: % GPCR activation compared to TPA, GPR88 (G Protein-Coupled Receptor 88)

T1 sequence (Q8IZ08 whole entry): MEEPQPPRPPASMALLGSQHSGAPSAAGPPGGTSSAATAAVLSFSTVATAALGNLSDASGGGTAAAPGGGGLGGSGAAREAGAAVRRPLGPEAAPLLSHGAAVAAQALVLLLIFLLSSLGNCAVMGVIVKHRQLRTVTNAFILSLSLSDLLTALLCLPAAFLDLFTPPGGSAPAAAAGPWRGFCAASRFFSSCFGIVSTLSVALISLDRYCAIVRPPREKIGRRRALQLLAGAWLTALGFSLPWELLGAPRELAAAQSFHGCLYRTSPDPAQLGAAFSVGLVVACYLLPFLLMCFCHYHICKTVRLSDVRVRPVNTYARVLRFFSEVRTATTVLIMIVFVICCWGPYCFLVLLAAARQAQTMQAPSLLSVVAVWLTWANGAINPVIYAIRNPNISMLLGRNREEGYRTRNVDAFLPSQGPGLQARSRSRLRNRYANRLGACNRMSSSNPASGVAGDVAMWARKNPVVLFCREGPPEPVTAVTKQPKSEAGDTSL

Row | SMILES | activation at 100 µM [1, 10] | activation at 10 µM [2, 11] | activation at 100 µM [3, 12] | activation at 10 µM [4, 13] | activation at 10 µM [5, 14] | activation at 10 µM [6, 15] | activation at 100 µM [7, 16] | activation at 100 µM [8, 17] | activation at 100 µM [9, 18] | activation at 100 µM [1, 19] | activation at 10 µM [2, 20] | activation at 100 µM [3, 21] | activation at 10 µM [4, 22] | activation at 10 µM [5, 23] | activation at 10 µM [6, 24] | activation at 100 µM [7, 25] | activation at 100 µM [8, 26] | activation at 100 µM [9, 27] | activation at 100 µM ([2]; GPCR GPR61 (G protein-coupled receptor 61), 100μM, read-out: % GPCR activation compared to TPA) | activation at 100 µM ([5]; GPCR GPR63 (G Protein-Coupled Receptor 63), 100μM, read-out: % GPCR activation compared to TPA)
1 | N#C[C@@]1(c2ccc3c(N)ncnn23)O[C@H](CO)[C@@H](O)[C@H]1O [GS441524] | -1.68% | -3.94% | -6.35% | -1.57% | 2.45% | -0.811% | -0.975% | -1.21% | -2.34% |  |  |  |  |  |  |  |  |  |  | 
2 | CC(C)OC(=O)[C@H](C)N[P@](=O)(OC[C@H]1O[C@@H](n2ccc(=O)[nH]c2=O)[C@](C)(F)[C@@H]1O)Oc1ccccc1 [sofosbuvir] |  |  |  |  |  |  |  |  |  | -2.6% | -0.929% | -27.2% | -1.12% | 1.22% | -1.94% | -1.05% | -1.66% | -0.818% |  | 
3 | CCC(CC)COC(=O)[C@H](C)N[P@](=O)(OC[C@H]1O[C@@](C#N)(c2ccc3c(N)ncnn23)[C@H](O)[C@@H]1O)Oc1ccccc1 [remdesivir] |  |  |  |  |  |  |  |  |  | -2.35% | -3.23% | 2.27% | -1.45% | 1.1% | -0.179% | -1.33% | 4.22% | -0.608% |  | 
4 | CC(C)C(=O)OC[C@H]1O[C@@H](n2ccc(NO)nc2=O)[C@H](O)[C@@H]1O [molnupiravir] | -1.53% | -0.396% | -23.9% | -0.992% | -0.167% | -1.59% | -2.8% | -0.697% | -1.19% |  |  |  |  |  |  |  |  |  |  | 
5 | NC(=O)c1nc(F)cnc1O [favipiravir, 6-fluoro-3-hydroxy-2-pyrazinecarboxamide] | -0.994% |  | -7.28% | -2.55% |  | -0.777% | -2.34% | 2.2% | -1.1% |  |  |  |  |  |  |  |  |  | -3.47% | -0.607%
